The record followed here is patent US9580521B1, “Process for making a poly(zwitterion/dianion)” (King Fahd University of Petroleum and Minerals, priority 2013, dated 2017).

The assay can be described thus: Inhibition of calcium sulfate (gypsum) scaling, conductivity measurements. The following applies: 20 ppm, supersaturated CaSO4 (3 CB); for 4, 9 and 5 screening by visual inspection under the same conditions. How it is done: The concentration of reject brine (i.e., concentrated brine (CB)) is denoted as 1 CB.
The evaluation of the newly developed scale inhibitor PZA 6 was performed in 3 CB solutions supersaturated with respect to CaSO4 as confirmed from solubility data of CaSO4. To a solution of 6 CB calcium chloride (60 mL) containing PZA 6 (40 ppm i.e. 40 mg/L) at 40° C.±1° C. was added quickly a preheated (40° C.) solution of 6 CB sodium sulfate (60 mL). The resultant 3 CB solution containing 20 ppm of PZA 6 was stirred at 300 rpm using a magnetic stir-bar, and conductivity measurements were made at an interval of every 10 min initially to quantify the effectiveness of the newly developed antiscalant. The drop in conductivity indicates the precipitation of CaSO4. Induction time was measured with a decrease in conductivity when precipitation started. Visual inspection was carefully done to see any turbidity arising from precipitation.
The reject brine in the Reverse Osmosis process has dissolved salts which precipitate in the event of exceeding their solubility limits. […]
A drop in conductivity is indicative of precipitation of CaSO4. […] To our satisfaction, there was no considerable change in conductivity for about 500 min, registering a 98% scale inhibition as calculated using eq 5: […]

Consider `C=CC[N+](CC=C)(CCCP(=O)(OCC)OCC)CCCS(=O)(=O)[O-]` [Monomer 4, 3-[diallyl {3-(diethoxyphosphoryl)propyl}ammonio]propane-1-sulfonate], for which the “CaSO4 scale inhibition (in words)” value is “neither monomers 4 and 9 nor polymer 5 gave any effective inhibition”.
